Source: US20070037782A1, “Therapeutic agent for ageing macular degeneration” (MEIJI DAIRIES CORPORATION, priority 2003, published 2007)

Test system: rat model of laser-induced choroidal neovascularization
Assay: Inhibitory effect on choroidal neovascularization (CNV) after subconjunctival administration, rat model of laser-induced CNV
Type: in vivo, Rats (Brown Norway)
Conditions: for incidence of CNV relative to that of the base group: single subconjunctival administration, 14 days after photocoagulation, mean±S.E., P<0.01 vs base group
Method: An inhibitory effect on choroidal neovascularization caused by the subconjunctival administration of FMPA was assessed using a rat model of laser-induced choroidal neovascularization (which may hereinafter be abbreviated as CNV).
Rats (Brown Norway, 8 week old, male) were given general anesthesia and their pupils were dilated with one drop of commercially available eye-drops (“Mydrin P”, trade name; product of Santen Pharmaceutical Co. Ltd.) They were then subjected to photocoagulation by a krypton laser photocoagulation apparatus (“MC-7000L”, manufactured by NIDEK Co., Ltd.). The photocoagulation was performed sporadically at 8 sites while focusing on the deep layer of the retina and avoiding laser irradiation to thick retinal blood vessels (coagulation conditions: spot size of 100μm, output of 100 mW and coagulation time for 0.1 second). This photocoagulation was given to both eyes. After photocoagulation, the sites exposed to laser were confirmed by fundus photography. These rats were bred for 14 days, whereby CNV rat models were produced. […]
Fourteen days after photocoagulation, 0.1 mL of 10 wt.% fluorescein was injected through the caudal vein and based on the photograph taken by a fluorescein fundus camera (“Pro III”, product of Kowa Company Ltd), presence or absence of CNV was observed. […] A ratio of the number of positive sites to the number of all the exposed sites (8 sites) of eyeballs was calculated and the incidence of CNV of each administration group was calculated when the CNV incidence of the base group (Group 1) was assumed to be 1.00. […]
The incidence of CNV was expressed as a mean value±S.E. Comparison between the base group (Group 1) and each FMPA group (Groups 2 and 3) was made using analysis of variance, followed by Dunnett multiple comparison tests, while comparison between the base group and Comparative medicament group (Group 4) or comparison between the FMPA group (Group 2) and Comparative medicament group was made using t-test. […]

## CC(=O)O[C@]1(C(C)=O)CC[C@H]2[C@@H]3C[C@H](C)C4=CC(=O)CC[C@]4(C)[C@@]3(F)CC[C@@]21C [FMPA, 9α-fluoromedroxyprogesterone acetate]
1000 μg/eye
  incidence of CNV relative to that of the base group: 62.2±6.7%
3000 μg/eye
  incidence of CNV relative to that of the base group: 48.9±6.5%
1000 and 3000 μg/eye, subconjunctival, rat
  CNV inhibitory effect (in words): dose-dependent CNV inhibitory effect
